# Assay results from EP1649856A2, “Use of pimecrolimus for selective immunomodulation” (Novartis AG, priority 2001, dated 2002).
# How the values were obtained:
# [1] = test system: SCID mice reconstituted with CD4^+CD45RB^HI T cells; test: SCID-IBD mouse model, treatment from day 1 for 4 weeks; format: in vivo; settings: 3 and 10 mg/kg/day p.o., steroid-related
# Source text: A well-established animal model for IBD exists (see Leach et al., Am. J. Pathol., Vol. 148, No. 5, pp. 1503-1515 (1996), and Powrie et al., Int. Immunol., Vol. 5, No. 11, pp. 1461-1471 (1993)). It is known that the transfer of syngeneic, naive T lymphocytes (CD4^+CD45RB^HI) into SCID mice results in a severe colitis and wasting disease, SCID-IBD. Histopathologically, features of both CD and UC are represented in this model which has been used throughout the 1990s to bring the understanding of the pathoetiology of this disease of immune dysregulation in man to its present status. There is no other animal model of IBD which is considered relevant for the human disease, both in mechanism and in validity of clinical treatment.
# In this study, SCID mice reconstituted with CD4^+CD45RB^HI T lymphocytes were used. These mice are known to develop chronic colitis with characteristics similar to human IBD, as described above.
# In this study, SCID mice were reconstituted with 2 x 10^5 CD4^+CD45RB^HI T cells and then treated with pimecrolimus (30, 60 and 100 mg/kg/day) or vehicle daily p.o. for 4 weeks. […] BW was monitored throughout. On termination, blood was withdrawn, spleen, mesenteric lymph nodes (MLN) and colon were removed. Serum haptoglobin levels were measured (ELISA), colitis was assessed histologically and lymphocyte and neutrophil numbers were calculated from FACS analysis of blood, spleen and MLN cell suspensions.
# In order to determine the efficacy of ASM981 treatment in preventing intestinal mucosal damage in SCID-IBD mice, a histological examination of the colon sections was performed according to defined morphological parameters. All colon sections were assessed according to a scheme awarding degrees of severity governed by the extent of cell infiltration and inflammation with a score of 8 being the maximum.
# [2] = in vivo; parameters: species or system rats; settings: rat, skin; 2 oral doses of 25 mg/kg in an interval of 2 hours; 6 hours after the last dosing; read-out: skinlblood concentration ratio
# Protocol: In another study designed to explore the differences between pimecrolimus and FK506 and to determine whether these differences might be associated with a different tissue distribution, the exposure to pimecrolimus and FK506 in various organs after oral administration were measured. Animals received 2 oral doses of 25 mg/kg in an interval of 2 hours. […] Pimecrolimus was found consistently to have a higher skinlblood concentration ratio than FK506 (2 hours: 7.3 vs. 2.8; 6 hours: 13 vs. 1.6; 24 hours: 36 vs. 6.0). The AUC0-24h in skin calculated for pimecrolimus was twice as high as with FK506.
# These distribution characteristics are relevant not only for oral, but also for topical application, as the compound enters systemic circulation after permeation through the skin.
Compound,effect on BW [1],Kp at 6 h [2]
"C[C@@H]1C[C@H]2[C@@H]3CCC4=CC(=O)C=C[C@]4(C)[C@@]3(F)[C@@H](O)C[C@]2(C)[C@@]1(O)C(=O)CO [Dexamethasone, reference compound]",accelerated loss in BW,–
"C=CC[C@@H]1/C=C(\C)C[C@H](C)C[C@H](OC)[C@H]2O[C@@](O)(C(=O)C(=O)N3CCCC[C@H]3C(=O)O[C@H](/C(C)=C/[C@@H]3CC[C@@H](O)[C@H](OC)C3)[C@H](C)[C@@H](O)CC1=O)[C@H](C)C[C@@H]2OC [FK506, tacrolimus, reference compound]",–,1.6
